Experimental data taken from ChEMBL document CHEMBL3045257, “Pyrenocines J-M: four new pyrenocines from the endophytic fungus, Phomopsis sp” (2012).

Columns and labels:
Zymoseptoria tritici = assay: Antifungal activity against Zymoseptoria tritici by agar diffusion test; type: functional
[Chlorella] fusca = Antialgal activity against 'Chlorella' fusca by agar diffusion test; type: functional, Scenedesmus fuscus
Phytophthora infestans = assay: Antifungal activity against Phytophthora infestans by agar diffusion test; type: functional
Botrytis cinerea = assay: Antifungal activity against Botryotinia fuckeliana by agar diffusion test; type: functional
Microbotryum violaceum = assay: Antifungal activity against Microbotryum violaceum by agar diffusion test; type: functional
Priestia megaterium = assay: Antimicrobial activity against Bacillus megaterium by agar diffusion test; type: functional
Escherichia coli = assay: Antimicrobial activity against Escherichia coli by agar diffusion test; type: functional
Pyricularia oryzae = assay: Antifungal activity against Magnaporthe oryzae by agar diffusion test; type: functional

Molecule	inhibition zone (IZ) (Zymoseptoria tritici) [mm]	inhibition zone (IZ) ([Chlorella] fusca) [mm]	inhibition zone (IZ) (Phytophthora infestans) [mm]	inhibition zone (IZ) (Botrytis cinerea) [mm]	inhibition zone (IZ) (Microbotryum violaceum) [mm]	inhibition zone (IZ) (Priestia megaterium) [mm]	inhibition zone (IZ) (Escherichia coli) [mm]	inhibition zone (IZ) (Pyricularia oryzae) [mm]	inhibition zone (IZ) ([Chlorella] fusca; Scenedesmus fuscus) [mm]
COc1cc(=O)oc2c1CO[C@@H](CC(C)=O)C2 [PYRENOCINE K]	6	6	0	0	5	8	6	0	
CCC[C@@H](Cc1oc(=O)cc(OC)c1CO)OC(C)=O [PYRENOCINE L]	0	10	0	0	0	9	10	0	
C[C@@H]1C[C@@H]([C@H](O)CC2CC(=O)NC(=O)C2)C(=O)[C@@H](C)C1 [CYCLOHEXIMIDE]		35			50	0	0		
CCCCCc1oc(=O)cc(OC)c1CO [PYRENOCINE M]	6	5	0	0	5	9	5	0	
CN(C)[C@@H]1C(O)=C(C(N)=O)C(=O)[C@@]2(O)C(O)=C3C(=O)c4c(O)cccc4[C@@](C)(O)[C@H]3C[C@@H]12 [TETRACYCLINE]		10			0	18	18		
NYSTATIN					20	0	0		0
CC1(C)S[C@@H]2[C@H](NC(=O)Cc3ccccc3)C(=O)N2[C@H]1C(=O)O [PENICILLIN G]		0			0	18	14		
